Series [1] has as its system CAR-T cells. In words: Live cell count and viability of EGFRvIII CAR-T cells grown with IL2, AP1903 or no treatment (Example 7). Format: cell-based, human. Conditions: for CAR-T cell growth with AP1903 (live cell count) / CAR-T cell viability with AP1903: EGFRvIII CAR-T cells; for CAR-T cell growth with AP1903 (live cell count): 8 days post production, FIG. 16; for CAR-T cell viability with AP1903: FIG. 17. An excerpt:
(§1) In this study, lentiviral (pLVX) constructs were generated comprising an SFFV promoter followed by a kozak sequence, the inducible chimeric cytokine receptor, a T2A sequence, and a chimeric antigen receptor. The chimeric antigen receptor was directed towards cells expressing EGFRvIII. For comparison, lentiviral constructs with either TagBFP or GoCART instead of the inducible chimeric cytokine receptor were used. GoCART consists of a myristoylation sequence followed by a portion of MyD88 and CD40 fused to two repeats of FKBP(F36V).
(§2) The T cells were transduced with lentivirus 2 days after isolation, and 3 days later were FACS sorted by binding APC-labeled EGFRvIII. The sorted EGFRvIII+ cells were cultured until 14 days post isolation.
At day 14, the 0.5e6 cells were resuspended in a 24-well plate, and grown with either IL2, AP1903, or no treatment for 8 days post production.

For series [2], the system named is CAR-T cells. In words: Cytokine measurement of CAR-T cells on day 2 and day 8 (Example 7). Format: cell-based, human. As to conditions: for cytokine release without any treatment: day 2 and 8 post production, FIG. 23, FIG. 24; for autoactivation (cytokine release in the absence of small molecule): no treatment.
Source text: as §1, §2
Cytokines were measured on day 2 and day 8. AP1903 data is shown FIG. 20 and FIG. 21. All values were normalized to untreated TagBFP-expressing CAR-T Cells. […] The IFN-related tails do incur some cytokine release.
Induction of cytokines at day 2 and 8 post production without any treatment was measured.

Another series relates to STAT4. Briefly: STAT4 luciferase reporter assay comparing tyrosine kinase activating domains in HEK293 cells co-transfected with STAT4 (Example 5A). As to conditions: for basal signaling: without ligand. The series is classed as cell-based. An excerpt: For this study, several tyrosine kinase activating domains were compared using a otherwise identical inducible cytokine receptor design. The tyrosine effector domain consists of a STAT5-activating sequence from IL7R fused to a STAT4-activating sequence from IL12Rb2. Each construct contains a membrane-targeting motif (CD8 SS), a dimerization domain (FKBP(F36V)), a tyrosine kinase activating domain derived from either the EpoR, GP130, PrIR, GHR, GCSFR, or TPOR/MPLR receptors, and a tyrosine effector domain consisting of the IL7R(316-459) cytotail fused to the IL12Rb2(775-825) peptide. Chimeric cytokine receptors also include an epitope tag for detection (Myc). The following inducible chimeric cytokine receptors were tested in this study:
HEK293 cells were transfected with constructs encoding the above inducible chimeric cytokine receptors, and a luciferase reporter for either STAT4 or STAT5. The luciferase reporters (Promega) encoded a luciferase under the control of either a STAT4 or STAT5 responsive element. As HEK293 cells lack STAT4, in wells transfected with the STAT4 reporter, a plasmid encoding constitutively-expressed STAT4 was transfected as well added. Transfected EpoR, GHR, and IL12Rb1+IL12Rb2 (the IL12 receptor) were used as positive controls. The ligand added to inducible chimeric cytokine receptors was AP1903. Epo was added to EpoR transfected cells, Growth Hormone to GHR transfected cells, and IL-12 to IL12 receptor transfected cells
(Reporter assays use an easily measured gene product as a stand-in for the process of interest.)

For series [3], the system named is BCMA(1-54), TACI(1-165) and BAFFR(1-78) ectodomain chimeric cytokine receptors. Briefly: HEK293T Stat reporter assay of TNFR2 superfamily ectodomain receptors with soluble BAFF trimers (Example 14). The series is classed as cell-based. Conditions: 5 hours post-treatment. An excerpt:
To test if the panel of ligand inducers and ectodomains can be further extended beyond the AP1903-FKBP(F36V) pairing, we tested signaling in response to other multimeric ligand inducers. As the Tumor Necrosis Family (TNF) superfamily of ligands are trimers, they engage their respective receptors in a multimeric fashion. Therefore, we fused ectodomains derived from the TNFR2 superfamily receptors, such as BCMA(1-54), TACI(1-165) and BAFFR(1-78), to the transmembrane and signaling domains of our chimeric cytokine receptors, and tested signaling in response to soluble trimeric ligand. Briefly, 20,000 HEK293T cells were plated into each well of a poly-L-lysine-coated 96-well flat-bottom plate and allowed to adhere overnight. The chimeric cytokine receptor (2.5 ng), a Stat response element that drives Firefly Luciferase (100 ng; Promega) and Renilla Luciferase control reporter vector (1 ng; Promega) were mixed in a final volume of 5 uL in Opti-MEM (Gibco) (“DNA mix”). 0.3 uL Lipofectamine 2000 (Invitrogen) in 5 uL Opti-MEM was incubated at room temperature for 5 minutes and then added to the DNA mix. […] 24 hours after transfection, cells were either left untreated, or treated with soluble BAFF or APRIL trimers diluted in serum-free media, and Stat reporter activity was determined 5 hours post-treatment using the Dual-Glo Luciferase Assay System (Promega). […]

Series [4] has as its system STAT5. Briefly: STAT5 signaling by IL7Ra, IL2Rb and IFNAR2 derived cytotail fragments (Example 6, FIG. 11). Format: cell-based. As to conditions: EpoR(237-338; L241G, L242P) tyrosine kinase activating domain, short (8 h) AP1903 treatment. On the procedure:
In this study, IL2Rb, IL7R, and […] cytotails were analyzed to identify tyrosines sufficient for key aspects of signaling. For instance, a segment of IL2Rb containing the STAT5-interacting tyrosines Y418 and Y436 might retain STAT5 signaling, but may lose PI3K signaling as this requires Y364 of the IL2Rb cytotail. Inducible chimeric cytokine receptors comprising the IL7R, IL2Rb, and IFNAR2 tails may include one or more tyrosine motifs within the cytotails. Elimination of one or more portions of the tail (e.g., the IL12Rb2 tail) in some cases results in removal of negative regulatory motifs and stronger signaling.
In this study, signaling by a variety of IL7Ra and IL2Rb derived fragments using the EpoR-based tyrosine kinase activating domain were tested. The following inducible chimeric cytokine receptors were tested in this study:
Constructs that are plotted include tyrosine effector domains derived from the IL7R and IL2Rb cytotails.

For series [5], the system named is STAT5. Briefly: STAT5 luciferase reporter assay of small-molecule inducible Epo receptors in HEK293T cells (Example 2). The series is classed as cell-based. Conditions: AP1903 added vs no ligand, FIG. 4. An excerpt:
According to the construct name, receptors contain a membrane-targeting motif (CD8 signal sequence (CD8 SS) or myristoyl), a dimerization domain (FKBP(F36V) or mutants thereof), a portion of the EpoR that contains a transmembrane (EpoR(237-272)), a JAK2 binding motif (EpoR(273-338)), and/or a tyrosine effector domain (EpoR(339-508)). Constructs may also include epitope tags (Myc or V5) for western blot or flow analyses.
Vectors encoding the inducible chimeric cytokine receptors were transfected into HEK293T cells along with a luciferase reporter for the STAT5 transcription factor (Promega E4651). The reporter vector consists of a firefly luficerase expressed under the control of a STAT5 responsive DNA element. Upon addition of erythropoietin (Epo), the erythropoietin receptor (EpoR) activates the JAK2 kinase which then phosphorylates tyrosines on the EpoR cytotail to generate binding sites for STAT5. […] Epo was added to samples with cells transfected with EpoR, and AP1903 was added to the samples with cells transfected with fusions of the EpoR to FKBP. No Epo or AP1903 was added to samples to assess baseline signaling. In FIG. 4, “ligand” is either Epo or AP1903.

The subject of series [6] is CAR-T cells. Briefly: Phenotyping of CAR-T cells at day 8 post production (Example 7). As to conditions: for cell phenotype after growth with AP1903: FIG. 18, FIG. 19. Format: cell-based, human.
Source text: as §1, §2
At day 8 post production growth with AP1903 or IL2, cells were phenotyped.

“Also recorded” adds a separate entry of the source.

Turning to “CD8 SS-Myc-FKBP(F36V)-EpoR(237-338; L241G, L242P)-IL2Rb(333-551): inducible chimeric cytokine receptor”, the “CAR-T cell growth with AP1903 (live cell count)” value (“CAR-T cell growth with AP1903” for short) in the series with CAR-T cells [1] is given as “slight growth”. Also, in the series on CAR-T cells [2], the “cytokine release without any treatment” value is “release IL13 and some TNFa (day 2, FIG. 23) that diminishes by day 8”. In the series with CAR-T cells [2] (day 2 and day 8), the “autoactivation (cytokine release in the absence of small molecule)” value (from here on “autoactivation”) is listed as “mildly autoactivating”.
In the case of “CD8 SS-Myc-FKBP(F36V)-EpoR(237-338; L241G, L242P)-IL12Rb2(775-825): inducible chimeric cytokine receptor”, in the series on STAT4 (peptide containing Y800, see Examples 3 and 5), the “STAT4 signaling when used as a tyrosine effector domain” value was “sufficient to provide STAT4 signaling”.
In the case of “BAFF: soluble BAFF trimers, TNF superfamily ligand”, in series [3] (FIG. 37C), the Stat5 reporter activity entry was “induced Stat5 and Stat4 activation”. The Stat4 reporter activity result in series [3] (FIG. 37D) was “induced Stat5 and Stat4 activation”.
In the case of “CD8 SS-Myc-FKBP(F36V)-EpoR(237-338; L241G, L242P)-IL7R(376-416, 424-459; Y456F): inducible chimeric cytokine receptor”, in the series on STAT5 [4], the “STAT5 signaling of cytotail fragments” value is given as “fully recreated”.
Take “CD8 SS-Myc-FKBP(F36V)-EpoR(237-338; L241G, L242P)-IL2Rb(393-433, 518-551): inducible chimeric cytokine receptor”: the “STAT5 signaling of cytotail fragments” value in the series with STAT5 [4] is on record as “far greater signaling”.
Regarding “CD8 SS-Myc-FKBP(F36V)-EpoR(237-508; L241G, L242P)-V5: inducible chimeric cytokine receptor”, the “STAT5 reporter signaling with ligand” value in the series on STAT5 [5] is on record as “closest to the EpoR(1-508) positive control; also recorded: robust activity”.
“CD8 SS-Myc-FKBP(F36V)-EpoR(237-338; L241G, L242P)-IL7R(316-459)-IL12Rb2(775-825): inducible chimeric cytokine receptor”: in the series with STAT4 (FIG. 9), the basal signaling result is “lowest basal signaling”.
Consider “CD8 SS-Myc-FKBP(F36V)-GCSFR(614-710)-IL7R(316-459)-IL12Rb2(775-825): inducible chimeric cytokine receptor”, for which the “signaling for STAT4” value in the series with STAT4 (AP1903, FIG. 9) is “strongest signaling for STAT4”. Further, in the series with STAT4 (FIG. 9), the basal signaling result is “had basal signaling”.
On to “CD8 SS-Myc-FKBP(F36V)-EpoR(237-338; L241G, L242P)-IL7R(316-459): inducible chimeric cytokine receptor”, for which, in the series with CAR-T cells [1], the “CAR-T cell growth with AP1903” value was “robust growth” and the “CAR-T cell viability with AP1903” value was “higher viability with AP1903 comparable to IL2 treatment”. The “cell phenotype after growth with AP1903” value with CAR-T cells [6] is reported as “more stem cell memory”. Further, the “cytokine release without any treatment” value with CAR-T cells [2] was “No cytokine release was observed”.
Consider “GoCART: myristoylation sequence followed by a portion of MyD88 and CD40 fused to two repeats of FKBP(F36V); previously reported multimerizer [reference compound]”, for which, in the series with CAR-T cells [1], the “CAR-T cell growth with AP1903” value is “slight growth” and the “CAR-T cell viability with AP1903” value was “higher viability with AP1903 comparable to IL2 treatment”. Also, the “cell phenotype after growth with AP1903” value in the series on CAR-T cells [6] was “less stem cell memory and more effector memory”. Also, the “cell phenotype when grown further with IL2” value in the series on CAR-T cells [6] (IL2) is on record as “somewhat more differentiated”. Moreover, the “cytokine release without any treatment” value with CAR-T cells [2] is “GM-CSF, IL5, IL13, IL22, and MIP1a at day 2 and more so at day 8”. For the same molecule, in the series on CAR-T cells [2] (day 2 and day 8, normalized to untreated TagBFP-expressing CAR-T Cells, FIG. 20, FIG. 21), the “cytokine release with AP1903” value is “robust cytokine release”. In addition, the “autoactivation” value in the series with CAR-T cells [2] (day 2 and day 8) was “strongly so”.

B1: CD8 SS-Myc-FKBP(F36V)-EpoR(237-338; L241G, L242P)-IFNAR2(310-515): inducible chimeric cytokine receptor (protein)
chain: KKKVWDYNYDDESDSDTEAAPRTSGGGYTMHGLTVRPLGQASATSTESQLIDPESEEEPDLPEVDVELPTMPKDSPQQLELLSGPCERRKSPLQDPFPEEDYSSTEGSGGRITFNVDLNSVFLRVLDDEDSDDLEAPLMLSSHLEEMVDPEDPDNVQSNHLLASGEGTQPTFPSPSSEGLWSEDAPSDQSDTSESDVDLGDGYIMR
As to B1, the “CAR-T cell counts on post-production day 5 and day 8” value in the series on CAR-T cells [1] (FIG. 25) was “least growth”. For the same molecule, the growth without signaling result in the series on CAR-T cells [1] (no treatment, over a week, FIG. 22) is “some less growth”. Also, the IL-2 consumption result in the series with CAR-T cells [2] (Day 8 cytokine measurements) is given as “did not consume as much IL-2”. Moreover, the “cytokine release without any treatment” value in the series with CAR-T cells [2] was “constitutively release small amounts of IL5”. Also, the “autoactivation” value in the series on CAR-T cells [2] (day 2 and day 8) is given as “mildly autoactivating”.

These data come from patent US12163169B2, “Inducible chimeric cytokine receptors” (Allogene Therapeutics, Inc., priority 2018, dated 2024).
